Experimental data taken from ChEMBL document CHEMBL4004854, “Pyrrolo[3',2':6,7]cyclohepta[1,2-b]pyridines with potent photo-antiproliferative activity” (Eur J Med Chem, 2017).
The source made the active and inactive calls. The calls are words filed in the database; no cut-off is given here.

Experiments:
[1] = Induction of singlet oxygen photogeneration in aqueous acetonitrile solution of ADPA assessed as photobleaching of anthracene absorption upon 150 Watt mercury light irradiation at 2.3 10^-5M at 400 nanometer measured up to 100 mins
MCF7 [2] = test: Induction of apoptosis in human MCF7 cells assessed as caspase-3 activation at 0.25 to 0.5 uM upon 2.5 J/cm2 UV light irradiation measured after 24 hrs by Western blot method; assay type: functional, cell-based
[3] = Drug metabolism in aqueous acetonitrile solution assessed as by-product formation at 2.3 10^-5M upon light irradiation by HPLC analysis; assay type: physicochemical; details: buffer
[4] = Induction of singlet oxygen photogeneration in aqueous acetonitrile solution of ADPA assessed as photobleaching of anthracene absorption upon 150 Watt mercury light irradiation at 2.3 10^-5M at 400 nanometer measured up to 100 mins by ferrioxalate actinometry
MCF7 [5] = test: Induction of apoptosis in human MCF7 cells assessed as tBID activation at 0.25 to 0.5 uM upon 2.5 J/cm2 UV light irradiation measured after 24 hrs by Western blot method; assay type: functional, cell-based
Jurkat [6] = test: Phototoxicity against human Jurkat cells assessed as reduction in cell viability preincubated for 30 mins followed by 1.25 J/cm2 UV light irradiation measured after 48 hrs by MTT assay; assay type: functional, cell-based; details: light or radiation study
Escherichia coli [7] = test: Induction of Escherichia coli pBR322 DNA oxidative damage at 40 uM upon 7.5 J/cm2 UV-A light irradiation in presence of Fpg by ethidium bromide staining based electrophoresis
[8] = Dark toxicity against human MCF7 cells assessed as reduction in cell viability after 72 hrs by MTT assay; assay type: cell-based
K562 [9] = test: Phototoxicity against human K562 cells assessed as reduction in cell viability preincubated for 30 mins followed by 1.25 J/cm2 UV light irradiation measured after 48 hrs by MTT assay; assay type: functional, cell-based; details: K562, light or radiation study
MCF7 [10] = test: Induction of ROS generation in human MCF7 cells at 4 uM preincubated for 30 mins followed by UV light irradiation measured after 2 hrs by H2DCFDA staining based fluorescence assay relative to control; assay type: functional
MCF7 [11] = test: Induction of lysosomal activation in human MCF7 cells at 2 uM upon UV light irradiation measured up to 2 hrs by lysotracker green DND26 dye based confocal microscopic method; assay type: functional, cell-based
Jurkat [12] = test: Phototoxicity against human Jurkat cells assessed as cell viability at 0.075 uM preincubated for 30 mins followed by 2.5 J/cm2 UV light irradiation measured after 72 hrs in presence of vitamin E by MTT assay relative to control; assay type: functional; details: light or radiation study, read-out: Activity
MCF7 [13] = test: Induction of ROS generation in human MCF7 cells up to 4 uM preincubated for 30 mins followed by UV light irradiation measured after 2 hrs in presence of 200 to 500 nM antioxidant NAC by H2DCFDA staining based fluorescence assay; assay type: functional, cell-based
[14] = Singlet oxygen sensitizing activity in aqueous acetonitrile solution irradiated with nanosecond laser flash photolysis assessed as lowest triplet-excited state by measuring short lived transient life time at 10^-4 M at 520 nanometer under oxygen saturated condition by spectroscopic method
Jurkat [15] = test: Phototoxic index, ratio of CC50 for human Jurkat cells under dark condition to EC50 for human Jurkat cells under UV light irradiated condition
MCF7 [16] = test: Phototoxicity against human MCF7 cells assessed as reduction in cell viability preincubated for 30 mins followed by 1.25 J/cm2 UV light irradiation measured after 48 hrs by MTT assay; assay type: functional, cell-based; details: MCF7, light or radiation study
[17] = Dark toxicity against human Jurkat cells assessed as reduction in cell viability after 72 hrs by MTT assay; assay type: cell-based
MCF7 [18] = test: Induction of apoptosis in human MCF7 cells assessed as apoptotic cells at 0.7 uM upon UV light irradiation measured after 24 hrs by Annexin V-FITC/propidium iodide staining based flow cytometry (reference value: 22%); assay type: functional
K562 [19] = test: Phototoxic index, ratio of CC50 for human K562 cells under dark condition to EC50 for human K562 cells under UV light irradiated condition
[20] = Singlet oxygen sensitizing activity in aqueous acetonitrile solution irradiated with nanosecond laser flash photolysis assessed as lowest triplet-excited state by measuring short lived transient life time at 10^-4 M at 520 nanometer under air equilibrated condition by spectroscopic method
MCF7 [21] = test: Induction of mitochondrial dysfunction in human MCF7 cells assessed as mild swelling at 2 uM upon UV light irradiation measured after 0.33 to 2 hrs by mitotracker orange CMTM-ROS/LCS1 dye based confocal microscopic method; assay type: functional, cell-based
Jurkat [22] = test: Phototoxicity against human Jurkat cells assessed as cell viability at 0.075 uM preincubated for 30 mins followed by 2.5 J/cm2 UV light irradiation measured after 72 hrs in presence of hydroxyl radical scavenger DMTU by MTT assay relative to control; assay type: functional; details: light or radiation study, read-out: Activity
MCF7 [23] = test: Induction of apoptosis in human MCF7 cells assessed as necrotic cells at 0.7 uM upon UV light irradiation measured after 24 hrs by Annexin V-FITC/propidium iodide staining based flow cytometry relative to control; assay type: functional
Escherichia coli [24] = test: Induction of Escherichia coli pBR322 DNA oxidative damage at 40 uM upon 7.5 J/cm2 UV-A light irradiation in presence of endonuclease-3 by ethidium bromide staining based electrophoresis
MCF7 [25] = test: Phototoxic index, ratio of CC50 for human MCF7 cells under dark condition to EC50 for human MCF7 cells under UV light irradiated condition
MCF7 [26] = test: Induction of mitochondrial dysfunction in human MCF7 cells assessed as perinuclear clustering at 2 uM upon UV light irradiation measured after 0.33 to 2 hrs by mitotracker orange CMTM-ROS/LCS1 dye based confocal microscopic method; assay type: functional, cell-based
[27] = Singlet oxygen sensitizing activity in aqueous acetonitrile solution irradiated with nanosecond laser flash photolysis assessed as lowest triplet-excited state by measuring long lived transient life time at 10^-4 M at 440 nanometer by spectroscopic method
[28] = Singlet oxygen sensitizing activity in aqueous acetonitrile solution irradiated with nanosecond laser flash photolysis assessed as lowest triplet-excited state by measuring short lived transient life time at 10^-4 M at 520 nanometer by spectroscopic method
Escherichia coli [29] = test: Induction of Escherichia coli pBR322 DNA single strand break assessed as open circular form DNA bands at 10 to 40 uM upon 7.5 J/cm2 UV-A light irradiation by ethidium bromide staining based UV transillumination assay
MCF7 [30] = test: Induction of lysosomal membrane impairment in human MCF7 cells at 2 uM upon UV light irradiation measured up to 2 hrs by lysotracker green DND26 dye based confocal microscopic method; assay type: functional, cell-based
Escherichia coli [31] = test: Induction of Escherichia coli pBR322 DNA double strand break assessed as linear form DNA bands at 10 to 40 uM upon 7.5 J/cm2 UV-A light irradiation by ethidium bromide staining based UV transillumination assay
[32] = Drug metabolism in aqueous acetonitrile solution assessed as by-product formation at 2.3 10^-5M upon light irradiation by UV-absorption method; assay type: physicochemical; details: buffer
MCF7 [33] = test: Induction of mitochondrial dysfunction in human MCF7 cells at 2 uM under dark condition measured after 0.33 to 2 hrs by mitotracker orange CMTM-ROS/LCS1 dye based confocal microscopic method; assay type: cell-based; details: mcf7, 2 µM
MCF7 [34] = test: Induction of mitochondrial dysfunction in human MCF7 cells assessed as organelle fusion at 2 uM upon UV light irradiation measured after 0.33 to 2 hrs by mitotracker orange CMTM-ROS/LCS1 dye based confocal microscopic method; assay type: functional, cell-based
[35] = Singlet oxygen sensitizing activity in aqueous acetonitrile solution irradiated with nanosecond laser flash photolysis assessed as lowest triplet-excited state by measuring short lived transient life time at 10^-4 M at 520 nanometer under argon saturated condition by spectroscopic method
Jurkat [36] = test: Induction of lipid peroxidation in human Jurkat cells upon 2.5 J/cm2 UV light irradiation measured after 24 hrs by TBARS assay; assay type: functional, cell-based
[37] = Dark toxicity against human K562 cells assessed as reduction in cell viability after 72 hrs by MTT assay; assay type: cell-based
MCF7 [38] = test: Induction of apoptosis in human MCF7 cells assessed as apoptotic cells at 20 uM upon UV light irradiation measured after 24 hrs by Annexin V-FITC/propidium iodide staining based flow cytometry (reference value: 22%); assay type: functional
MCF7 [39] = test: Induction of ROS generation in human MCF7 cells up to 4 uM measured after 2 hrs under dark condition by H2DCFDA staining based fluorescence assay; assay type: cell-based; details: mcf7, 2 h
MCF7 [40] = test: Induction of apoptosis in human MCF7 cells assessed as live cells at 20 uM upon UV light irradiation measured after 24 hrs by Annexin V-FITC/propidium iodide staining based flow cytometry (reference value: 72%); assay type: functional
MCF7 [41] = test: Induction of mitochondrial dysfunction in human MCF7 cells at 2 uM upon UV light irradiation measured after 0.33 to 2 hrs by mitotracker orange CMTM-ROS/LCS1 dye based confocal microscopic method; assay type: functional, cell-based
MCF7 [42] = test: Induction of lysosomal activation in human MCF7 cells at 2 uM under dark condition measured up to 2 hrs by lysotracker green DND26 dye based confocal microscopic method; assay type: cell-based; details: mcf7, 2 h

CCOC(=O)c1cc2c(n1Cc1ccc(OC)cc1)-c1[nH]c(=O)c(S(=O)(=O)c3ccccc3)cc1CCC2
Activity [1]: Active | Activity (MCF7 [2]): Active | Drug metabolism [3]: Metabolite_Notdetected | Activity [4]: Active | Activity (MCF7 [5]): Active | EC50 (Jurkat [6]): 0.21 µM | Activity (Escherichia coli [7]): Active | CC50 at 72 h [8]: > 20 µM | EC50 (K562 [9]): 0.28 µM | Activity (MCF7 [10]): <=150% | Activity (MCF7 [11]): Active | viability at 0.075 µM (Jurkat [12]): 80 to 90% | Activity (MCF7 [13]): inactive | Time [14]: 0.7 microsec | Ratio CC50/EC50 (Jurkat [15]): >95.24 | EC50 (MCF7 [16]): 0.7 µM | CC50 at 72 h [17]: > 20 µM | Activity (MCF7 [18]): 36% | Ratio CC50/EC50 (K562 [19]): >71.43 | Time [20]: 1.2 microsec | Activity (MCF7 [21]): Active | viability at 0.075 µM (Jurkat [22]): 80 to 90% | Activity (MCF7 [23]): 18% | Activity (Escherichia coli [24]): Active | Ratio CC50/EC50 (MCF7 [25]): >28.53 | Activity (MCF7 [26]): Active | Time [27]: > 30 microsec | Time [28]: < 3.2 microsec | Activity (Escherichia coli [29]): inactive | Activity (MCF7 [30]): Active | Activity (Escherichia coli [31]): inactive | Drug metabolism [32]: Metabolite_Notdetected | Activity (MCF7 [33]): Non-Toxic | Activity (MCF7 [34]): Active | Time [35]: 3.2 microsec | Activity (Jurkat [36]): Dose-dependent effect | CC50 at 72 h [37]: > 20 µM

Cn1ccc2c1-c1c(cc(S(=O)(=O)c3ccccc3)c(=O)n1C)CCC2
EC50 (Jurkat [6]): > 20 µM | CC50 at 72 h [8]: > 20 µM | EC50 (K562 [9]): > 20 µM | Activity (MCF7 [11]): inactive | EC50 (MCF7 [16]): > 20 µM | CC50 at 72 h [17]: > 20 µM | Activity (MCF7 [38]): 25% | Activity (MCF7 [39]): Non-Toxic | Activity (MCF7 [40]): 66% | Activity (MCF7 [41]): inactive | Activity (MCF7 [42]): Non-Toxic | Activity (MCF7 [33]): Non-Toxic | CC50 at 72 h [37]: > 20 µM
